In patent US9610287B2 (H. Lundbeck A/S, priority 2011, dated 2017):

Tests used:
[1] = Elimination half life in human; settings: in vivo
D2 receptors = biological target: T1, D2 receptors (Rattus norvegicus, UniProt P61169); assay: In vivo binding to D2 receptors in rat brain ([3H]-raclopride); settings: sc, subcutaneous
T1 construct: the brain quickly removed and striatum and cerebellum dissected out and homogenized; from tissue; host or cells: striatum of male Wistar rats (in vivo)
Description: Description of In Vivo Binding to D2 Receptors in Rat Brain
In vivo binding is carried out according to Andersen et al (Eur J Pharmacol, (1987) 144:1-6) with a few modifications (Kapur S. et al, J Pharm Exp Ther, 2003, 305, 625-631). Briefly, 6 rats (male Wistar, 180-200 g) are treated with 20 mg/kg test compound subcutaneous 30 minutes before receiving 9.4 micro Ci [^3H]-raclopride intravenous via the tail vein.
15 minutes after the injection of the radio ligand the animals are killed by cervical dislocation, the brain quickly removed and striatum and cerebellum dissected out and homogenized in 5 mL (cerebellum in 20 mL) ice-cold buffer (50 mM K2PO4, pH 7.4). 1.0 mL of the homogenate is filtered through 0.1% PEI—soaked Whatman GF/C filters. This is completed within 60 seconds subsequent to the decapitation. Filters are washed 2 times with 5 mL ice-cold buffer and counted in a scintillation counter. A group of vehicle treated animals is used to determine [^3H]-raclopride total binding in striatum and non-specific binding in cerebellum. The homogenate is measured for protein content by the BCA protein determination assay (Smith P. K. et al (1985) Anal. Biochem., 150: 6-85).

D1 receptor = D1 receptor (Homo sapiens, UniProt P21728); assay: PET study in healthy subjects, D1 receptor occupancy (11C-SCH23390); assay type: in vivo; settings: read-out: D1 receptor occupancy in putamen
rats [2] = settings: fumarate salt; cited from earlier work
rats [3] = assay: Condition avoidance response (CAR) model in rats; assay type: in vivo, rat; settings: at very low levels of D2 receptor occupancy
D2 receptor = D2 receptor (Homo sapiens, UniProt P14416); assay: PET study in healthy subjects, D2 receptor occupancy (11C-raclopride); assay type: in vivo; settings: read-out: D2 receptor occupancy in the putamen
schizophrenic patients = assay: Randomized, double-blind study of daily vs weekly dosing in schizophrenic patients, PANSS Total Score; assay type: in vivo, human
Description: The study is a randomized, double-blind, parallel-group, exploratory study of safety, tolerability and PK of daily dosing vs weekly dosing of Compound (I) in schizophrenic patients.
The open-label period (OL_Period) is the period from start of open-label treatment (baseline) until stop of open-label treatment (at OL-withdrawal or randomisation to double-blind treatment, whichever occurs first).
The double-blind period (DB_Period) is the period from start of double-blind treatment (randomisation) until stop of double-blind treatment (at DB-withdrawal or completion, whichever occurs first), that is, the entire double-blind period including the PBO_Period.
The IMP dosing period (IMP_Period) is the period from start of open-label treatment (baseline) until stop of double-blind treatment (at withdrawal or completion, whichever occurs first), that is, the OL_Period plus the DB_Period.
A study was conducted with a study design as described in Example 2.

[4] = 2 mg/day given daily for 18 days
[5] = 10 mg/day given daily for 18 days

D2 receptor, sequence (P14416 whole entry): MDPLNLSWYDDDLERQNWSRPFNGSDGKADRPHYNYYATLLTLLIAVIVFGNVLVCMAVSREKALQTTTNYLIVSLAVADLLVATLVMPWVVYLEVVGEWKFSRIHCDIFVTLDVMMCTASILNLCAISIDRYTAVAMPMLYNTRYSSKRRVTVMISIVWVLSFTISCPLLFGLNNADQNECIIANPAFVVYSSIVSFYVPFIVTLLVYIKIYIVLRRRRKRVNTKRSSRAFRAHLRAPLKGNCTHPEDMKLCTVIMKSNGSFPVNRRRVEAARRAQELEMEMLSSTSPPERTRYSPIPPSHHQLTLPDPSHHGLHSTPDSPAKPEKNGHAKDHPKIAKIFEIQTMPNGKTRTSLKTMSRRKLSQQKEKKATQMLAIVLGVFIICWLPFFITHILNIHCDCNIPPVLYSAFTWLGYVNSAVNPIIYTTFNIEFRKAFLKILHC
D1 receptor, sequence (P21728 whole entry): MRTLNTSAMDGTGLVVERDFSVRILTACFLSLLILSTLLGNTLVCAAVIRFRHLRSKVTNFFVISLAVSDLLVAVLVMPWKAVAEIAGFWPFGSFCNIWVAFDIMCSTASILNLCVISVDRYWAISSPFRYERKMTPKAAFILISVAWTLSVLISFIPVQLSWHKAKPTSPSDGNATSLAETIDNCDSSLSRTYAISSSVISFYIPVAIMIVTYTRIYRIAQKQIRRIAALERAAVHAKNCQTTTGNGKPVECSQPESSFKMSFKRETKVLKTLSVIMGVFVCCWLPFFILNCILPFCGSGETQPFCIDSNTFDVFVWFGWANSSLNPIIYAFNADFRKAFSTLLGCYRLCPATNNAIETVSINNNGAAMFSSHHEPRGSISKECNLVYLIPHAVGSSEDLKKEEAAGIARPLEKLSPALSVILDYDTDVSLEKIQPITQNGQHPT
T1 sequence (P61169 whole entry): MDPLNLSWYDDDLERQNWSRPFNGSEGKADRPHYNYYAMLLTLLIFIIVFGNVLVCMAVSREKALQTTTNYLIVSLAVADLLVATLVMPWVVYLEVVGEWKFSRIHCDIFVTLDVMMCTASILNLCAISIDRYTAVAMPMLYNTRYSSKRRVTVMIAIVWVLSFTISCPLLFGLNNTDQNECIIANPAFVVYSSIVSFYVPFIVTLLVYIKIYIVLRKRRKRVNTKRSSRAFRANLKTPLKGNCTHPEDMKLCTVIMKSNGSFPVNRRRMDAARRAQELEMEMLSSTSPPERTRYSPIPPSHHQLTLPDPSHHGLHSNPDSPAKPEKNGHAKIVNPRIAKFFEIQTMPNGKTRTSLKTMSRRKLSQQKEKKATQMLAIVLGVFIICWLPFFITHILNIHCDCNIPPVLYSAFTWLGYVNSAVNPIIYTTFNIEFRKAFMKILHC

CC1(C)CN([C@@H]2C[C@@H](c3ccccc3)c3ccc(Cl)cc32)CCN1 (relative stereo) [Compound (II), trans-1(6-chloro-3-phenyl-indan-1-yl)-3,3-dimethyl-piperazine]
half-life [1]: 300 to 400 h

CN1CCN([C@@H]2C[C@@H](c3ccccc3)c3ccc(Cl)cc32)CC1(C)C [Compound (I), 4-((1R,3S)-6-chloro-3-phenyl-indan-1-yl)-1,2,2-trimethyl-piperazine]
ED50 (D2 receptors): 4.1 mg/kg
receptor occupancy at 2 mg (D1 receptor; [4]): 32%
receptor occupancy at 10 mg (D1 receptor; [5]): 69%
induction of catalepsy (rats [2]): does not induce catalepsy
antipsychotic activity in CAR model (rats [3]): possesses antipsychotic activity
receptor occupancy at 2 mg (D2 receptor; [4]): 11%
receptor occupancy at 10 mg (D2 receptor; [5]): 43%
Mean (change in PANSS) Total Score from randomization (schizophrenic patients; 10 mg/day, study day 29): 1.55
Mean (change in PANSS) Total Score from randomization (schizophrenic patients; 10 mg/day, study day 36): −1.00
Mean (change in PANSS) Total Score from randomization (schizophrenic patients; 10 mg/day, study day 43): −2.50
Mean (change in PANSS) Total Score from randomization (schizophrenic patients; 10 mg/day, study day 50): −3.50
Mean (change in PANSS) Total Score from randomization (schizophrenic patients; 10 mg/day, study day 57): −5.80
Mean (change in PANSS) Total Score from randomization (schizophrenic patients; 20 mg/week, study day 29): 0.00
Mean (change in PANSS) Total Score from randomization (schizophrenic patients; 20 mg/week, study day 36): 0.80
Mean (change in PANSS) Total Score from randomization (schizophrenic patients; 20 mg/week, study day 43): −2.00
Mean (change in PANSS) Total Score from randomization (schizophrenic patients; 20 mg/week, study day 50): −1.22
Mean (change in PANSS) Total Score from randomization (schizophrenic patients; 20 mg/week, study day 57): −4.38
Mean (change in PANSS) Total Score from randomization (schizophrenic patients; 30 mg/week, study day 29): 1.09
Mean (change in PANSS) Total Score from randomization (schizophrenic patients; 30 mg/week, study day 36): 0.50
Mean (change in PANSS) Total Score from randomization (schizophrenic patients; 30 mg/week, study day 43): 4.00
Mean (change in PANSS) Total Score from randomization (schizophrenic patients; 30 mg/week, study day 50): −4.14
Mean (change in PANSS) Total Score from randomization (schizophrenic patients; 30 mg/week, study day 57): −5.43
Mean (change in PANSS) Total Score from randomization (schizophrenic patients; 45 mg/week, study day 29): 0.40
Mean (change in PANSS) Total Score from randomization (schizophrenic patients; 45 mg/week, study day 36): −3.50
Mean (change in PANSS) Total Score from randomization (schizophrenic patients; 45 mg/week, study day 43): −5.70
Mean (change in PANSS) Total Score from randomization (schizophrenic patients; 45 mg/week, study day 50): −8.00
Mean (change in PANSS) Total Score from randomization (schizophrenic patients; 45 mg/week, study day 57): −6.88
reduction in PANSS Total Score compared with daily dose of 10 mg/day (schizophrenic patients; once weekly, 20 mg/week to 45 mg/week, in particular 30 and 45 mg/week): as effective in reduction in PANSS Total Score as a daily dose of 10 mg/day
reduction of PANSS Total Score compared with daily dose of 10 mg/day (schizophrenic patients; once weekly, between about 30 mg/week and about 45 mg/week): at least to the same extend as a daily dose of 10 mg/day
half-life [1]: ~150 h
